Measured values taken from ChEMBL document CHEMBL5550185, “Targeting hTERT Promoter G-Quadruplex DNA Structures with Small-Molecule Ligand to Downregulate hTERT Expression for Triple-Negative Breast Cancer Therapy” (J Med Chem, 2024).

Key:
[1] = system: HepG2; assay: Cytotoxicity against telomerase-positive human HepG2 cells assessed as inhibition of cell growth incubated for 48 hrs by MTT assay; type: functional, cell-based; details: HepG2, 48 h
[2] = system: PC-3; assay: Cytotoxicity against telomerase-positive human PC-3 cells assessed as inhibition of cell growth incubated for 48 hrs by MTT assay; type: functional, cell-based; details: PC-3, 48 h
[3] = system: HeLa; assay: Cytotoxicity against telomerase-positive human HeLa cells assessed as inhibition of cell growth incubated for 48 hrs by MTT assay; type: functional, cell-based
[4] = system: A549; assay: Cytotoxicity against telomerase-positive human A549 cells assessed as inhibition of cell growth incubated for 48 hrs by MTT assay; type: functional, cell-based; details: A549, 48 h
[5] = system: MDA-MB-231; assay: Cytotoxicity against telomerase-positive human MDA-MB-231 cells assessed as inhibition of cell growth incubated for 48 hrs by MTT assay; type: functional, cell-based; details: MDA-MB-231, 48 h
[6] = system: U2OS; assay: Cytotoxicity against alternative lengthening of telomere-positive human U2OS cells assessed as inhibition of cell growth incubated for 48 hrs by MTT assay; type: functional, cell-based
[7] = Cytotoxicity against human HK-2 cells assessed as inhibition of cell growth incubated for 48 hrs by MTT assay; type: toxicity, cell-based
[8] = Cytotoxicity against HUVEC cells assessed as inhibition of cell growth incubated for 48 hrs by MTT assay; type: toxicity, cell-based; details: human

For CCN(CC)CCCN1/C(=C/c2cc(/C=C/c3cc4ccccc4[nH]3)[n+](C)c3ccccc23)Sc2ccccc21, the IC50 [1] was 5.4 µM, the IC50 [2] was 3.1 µM and the IC50 [3] was 3.3 µM. It also gave an IC50 [4] of 4.7 µM, an IC50 [5] of 5.6 µM and an IC50 [6] of 10.3 µM. The IC50 at 48 h [7] was 9.5 µM and the IC50 at 48 h [8] was 11.9 µM.
CC1CCN(CCCN2/C(=C/c3cc(/C=C/c4c[nH]c5ccccc45)[n+](C)c4ccccc34)Sc3ccccc32)CC1 showed an IC50 [1] of 3.2 µM, an IC50 [2] of 2.4 µM and an IC50 [3] of 1.9 µM. It also gave an IC50 [4] of 1.7 µM, an IC50 [5] of 1.9 µM and an IC50 [6] of 5.3 µM. The IC50 at 48 h [7] was 5.5 µM and the IC50 at 48 h [8] was 6 µM.
Compound CC1CCN(CCCN2/C(=C/c3cc(/C=C/c4cc5ccccc5[nH]4)[n+](C)c4ccccc34)Sc3ccccc32)CC1 has an IC50 [1] of 5 µM, an IC50 [2] of 2.5 µM and an IC50 [3] of 3.1 µM. For the same compound, the IC50 [4] was 4.3 µM, the IC50 [5] was 2.6 µM and the IC50 [6] was 6.2 µM. The IC50 at 48 h [7] was 6.3 µM and the IC50 at 48 h [8] was 8 µM.
C[n+]1c(/C=C/c2c[nH]c3ccccc23)cc(/C=C2\Sc3ccccc3N2CCCN2CCCCC2)c2ccccc21 showed an IC50 [1] of 4.5 µM, an IC50 [2] of 3.8 µM and an IC50 [3] of 1.8 µM. It also gave an IC50 [4] of 1.7 µM, an IC50 [5] of 3.1 µM and an IC50 [6] of 5.1 µM. For the same compound, the IC50 at 48 h [7] was 5.4 µM and the IC50 at 48 h [8] was 11.9 µM.
For C[n+]1c(/C=C/c2c[nH]c3ccccc23)cc(/C=C2\Sc3ccccc3N2CCCN2CCOCC2)c2ccccc21, the IC50 [1] was 5.8 µM, the IC50 [2] was 4.7 µM and the IC50 [3] was 2.3 µM. The IC50 [4] was 2.1 µM, the IC50 [5] was 2.9 µM and the IC50 [6] was 7.8 µM. For the same compound, the IC50 at 48 h [7] was 5.8 µM and the IC50 at 48 h [8] was 16.5 µM.
CCN(CC)CCCN1/C(=C/c2cc(/C=C/c3c[nH]c4ccccc34)[n+](C)c3ccccc23)Sc2ccccc21 showed an IC50 [1] of 4.7 µM, an IC50 [2] of 5.4 µM and an IC50 [3] of 1.9 µM. The IC50 [4] was 2.3 µM, the IC50 [5] was 2.1 µM and the IC50 [6] was 9.4 µM. It also gave an IC50 at 48 h [7] of 4.6 µM and an IC50 at 48 h [8] of 14.5 µM.
C[n+]1c(/C=C/c2cc3ccccc3[nH]2)cc(/C=C2\Sc3ccccc3N2CCCN2CCC(C(F)(F)F)CC2)c2ccccc21 gave an IC50 [1] of 4.7 µM, an IC50 [2] of 3.9 µM and an IC50 [3] of 5.5 µM. For the same compound, the IC50 [4] was 6.6 µM, the IC50 [5] was 5.3 µM and the IC50 [6] was 9.8 µM. For the same compound, the IC50 at 48 h [7] was 14.7 µM and the IC50 at 48 h [8] was 12 µM.
C[n+]1c(/C=C/c2cc3ccccc3[nH]2)cc(/C=C2\Sc3ccccc3N2CCCN2CCCCC2)c2ccccc21 gave an IC50 [1] of 4.5 µM, an IC50 [2] of 3.3 µM and an IC50 [3] of 3 µM. For the same compound, the IC50 [4] was 3.6 µM, the IC50 [5] was 3.3 µM and the IC50 [6] was 5 µM. For the same compound, the IC50 at 48 h [7] was 7.9 µM and the IC50 at 48 h [8] was 9.4 µM.
Compound CC(C)(C)OO [TERT-BUTYL HYDROPEROXIDE] has an IC50 [5] of 549 µM.
For C[n+]1c(/C=C/c2cc3ccccc3[nH]2)cc(/C=C2\Sc3ccccc3N2CCCN2CCOCC2)c2ccccc21, the IC50 [1] was 5.2 µM, the IC50 [2] was 4.8 µM and the IC50 [3] was 4.1 µM. The IC50 [4] was 5 µM, the IC50 [5] was 6.4 µM and the IC50 [6] was 14.8 µM. For the same compound, the IC50 at 48 h [7] was 9.5 µM and the IC50 at 48 h [8] was 16.6 µM.
